Marks after values point to notes of the source that are not given here. Positions of bridges follow the written chain, without caps; N, C: chain ends. Non-standard residues stand in square brackets, D forms with d. No end group written: not given here.
Key:
[1] = test system: MCP-1 induced THP-1 migration; experiment: THP-1 trans-well migration assay, MCP-1 as chemoattractant; type: cell-based, human; conditions: ns = not significantly different from control
Method: (§1) To determine whether an agent inhibits a chemokine-induced activity, such as macrophage recruitment, varying amounts of the agent are mixed with cells in the presence of a known chemoattractant. For example, a range of known concentrations of an agent, e.g., a chemokine peptide, is incubated with a defined number (e.g., 10^4-10^6) of human THP-1 monocyte cells in individual wells of the top compartment of a trans-well plate. Chemokine (such as MCP-1, MIP1α, IL8 or SDF-1α), at a concentration known to cause significant migration of THP-1 cells in the trans-well migration assay, is placed in the lower compartment (FIG. 1). Cells are then incubated at 37° C. for a period sufficient to allow migration, e.g., 4 hours. After incubation, the cells are gently removed from the top of the filter with a pipette, 20 μl of 20 mM EDTA in simple PBS is added into each top well, and incubated for 20 minutes at 4° C. The filter is carefully flushed with media using a gentle flow, and removed. A standard curve consisting of a two-fold dilution series of THP-1 cells (in 29 μl) is prepared to accurately quantify the number of cells that have migrated. Migrated cells are stained with 3 μl of MTT stock dye solution which is added directly into each well (5 mg/ml in RPMI-1640 without phenol red, Sigma Chemical Co.) and incubated at 37° C. for 4 hours. The media is carefully aspirated from each well, and the converted dye is solubilized by 20 μl of DMSO. Absorbance of converted dye is measured at a wavelength of 595 nm using an ELISA plate reader. The number of migrated cells in each well is then determined by interpolation of the standard curve (see also Imai et al., J. Biol. Chem., 272, 15036 (1997)).
(§2) For this assay, THP-1 cells were maintained at a density of 4×10^5 cells per ml in RPMI-1640 supplemented with 10% fetal calf serum+20 μM 2-mercaptoethanol. Chemotaxis was induced in a 96-well disposable chemotaxis chamber fitted with a […] polycarbonate filter (PVP free, ChemoTX, Neuroprobe Inc., Cabin John). Twenty-nine μl of chemoattractant (recombinant human chemokine; 50 ng/ml, i.e., 5.9 nM) or control (100 ng/ml TGFβ) was added to the lower compartment of each well. The framed filter was aligned with the holes in the corner of the filter frame and placed over the wells. Five×10^4 THP-1 cells in 25 μl of RPMI-1640 were added to the upper compartment. Peptides were dissolved in Milli Q water and then serially diluted in culture medium. In most cases, the serially diluted peptides were added to the upper compartment of the chemotaxis chamber. The chamber was incubated at 37° C. in a humidified atmosphere of 5% CO2 for 4 hours.
(§3) After incubation, the cells were gently removed from the top of the filter with a pipette, 20 μl of 20 mM EDTA in PBS was added into each top well, and the mixture was incubated for 20 minutes at 4° C. The filter was then carefully flushed with media using a gentle flow, and removed. A standard curve was prepared to accurately quantify the number of THP-1 cells that had migrated. The curve was based on a two-fold dilution series of THP-1 cells (top standard 100,000 cells in 29 μl). Cells which had migrated, and in separate wells, the cells in the standards, were stained with 3 μl of MTT stock solution which was added directly into each well (5 mg/ml in RPMI 1640 without phenol red, Sigma Chemical Co.) and incubated at 37° C. for 4 hours. The media was carefully aspirated from each well, and the converted dye was solubilized by 20 μl of DMSO. Absorbance of converted dye was measured at a wavelength of 595 nm using an ELISA plate reader. The number of cells that had migrated in each well was determined by interpolation of the standard curve.

gp120 = conditions: ns = not significantly different from control; >100 = ED50 not determined
HIV = type: cell-based; conditions: ns = not significantly different from control
[2] = test system: MIP1α induced THP-1 migration; experiment: THP-1 trans-well migration assay, MIP1α as chemoattractant; type: cell-based, human; conditions: ns = not significantly different from control
Method: as §1, §2, §3

[3] = test system: SDF-1α induced THP-1 migration; experiment: THP-1 trans-well migration assay, SDF-1α as chemoattractant; type: cell-based, human; conditions: ns = not significantly different from control
Method: as §1, §2, §3

[4] = in vivo; cited from earlier work
[5] = molecular target: T1, Duffy Antigen Receptor for Chemokines (DARC) (Homo sapiens, UniProt Q16570); experiment: DARC binding: competition with 125I-MCP-1 on red blood cells; conditions: for DARC binding: ns = not significantly different from control, >100 = ED50 not determined
T1 sequence (Q16570 1-336): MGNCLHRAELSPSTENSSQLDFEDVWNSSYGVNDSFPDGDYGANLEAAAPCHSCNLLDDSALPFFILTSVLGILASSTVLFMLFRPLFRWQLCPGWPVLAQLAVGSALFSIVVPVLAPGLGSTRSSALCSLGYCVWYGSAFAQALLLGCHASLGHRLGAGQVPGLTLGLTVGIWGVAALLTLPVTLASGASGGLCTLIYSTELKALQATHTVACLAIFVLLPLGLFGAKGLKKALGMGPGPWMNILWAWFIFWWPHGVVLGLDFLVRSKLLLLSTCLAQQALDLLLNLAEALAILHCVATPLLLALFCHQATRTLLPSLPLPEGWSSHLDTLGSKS

[6] = test system: chemokine receptors on THP-1 cells; experiment: Binding to chemokine receptors on THP-1 cells; design: species or system human
Method: In general, specific binding is calculated as the amount of labeled agent bound in the absence of cold competitor minus the amount of labeled agent bound in the presence of cold competitor. The amount of specific binding in the presence of varied amounts of cold competitor can be used to determine the association constant for the agent, as well as the number of binding sites on the cell for the agent, using, for example, Scatchard Analysis. The agent may be labeled by radiolabeling (e.g., iodination) or with a suitable biochemical tag (e.g., biotin) or by addition of a photoactivatable crosslinking group. Agents with an association constant lower than 100 μM (i.e., which bind more strongly than an agent with an association constant of 100 μM) and which have at least about 2,500, preferably at least about 10,000, and more preferably greater than 25,000, binding sites per cell for at least one cell type which expresses a chemokine receptor, fall under the scope of this invention. THP-1 cells have at least about 5,000 MCP-1 receptors/cell.
For example, monocytes are suspended in RPMI 1640 medium without bicarbonate containing 0.2% bovine serum albumin and 0.1% azide. Radiolabeled chemokine peptide is incubated with 1-2×10^6 cells, e.g., THP-1 cells, in the presence or absence of increasing concentrations of unlabeled chemokine (MCP-1, MCP-3, MCP-4, RANTES or MIP-1α) for 15 minutes at 37° C. in a 96-well plate in a final volume of 0.2 ml (e.g., PBS+0.5% FCS). After the incubation, 0.5 ml of ice-cold wash buffer (20 mM Tris, 0.5 M NaCl, pH 7.4) is added, and cells are collected onto a polyethyleneimine-treated Whatman GF/C filter using a Brandall cell harvester. Filters are washed with 4 ml of cold wash buffer, and the radioactivity bound to the filters is counted in a γ-counter.
For Scatchard analysis, the absorbance readings at 450 nm were calibrated, by reference to a standard curve in which known amounts of labeled peptide were coupled to derivatized sepharose beads (activated thiol-sepharose 4B; Sigma T8512) via the cysteine residue in each peptide. Briefly, known amounts (1 fmol to 1 pmol) of biotin-labeled peptide were incubated with 1 mg of activated thiol-sepharose beads in 100 μl of PBS at 37° C. for 1 hour. Free activated thiols were then blocked by addition of cysteine to a final concentration of 10 mM. The peptide-conjugated beads were then washed 5 times in PBS and treated exactly as for the cells described above. The absorbance at 450 nm obtained when a known amount of peptide was coupled to the beads was used to construct a standard curve which was used to convert the absorbance readings obtained with cells into number of molecules of labeled peptide which had bound.

[7] = test system: chemokine-induced THP-1 migration; experiment: THP-1 trans-well migration assay, panel of chemokines (MCP-1, MIP1α, IL-8, SDF1α); type: cell-based, human; conditions: MCP-1, MIP1α, IL-8, SDF1α
[8] = test system: RANTES induced THP-1 migration; experiment: THP-1 trans-well migration assay, RANTES as chemoattractant; type: cell-based, human; conditions: tripeptide at 100 μM, mean ± range; dash = no statistically significant reduction in migration
Method: To determine whether an agent inhibits a chemokine-induced activity, such as macrophage recruitment, varying amounts of the agent are mixed with cells in the presence of a known chemoattractant. For example, a range of known concentrations of an agent, e.g., a chemokine peptide, is incubated with a defined number (e.g., 10^4-10^6) of human THP-1 monocyte cells in individual wells of the top compartment of a trans-well plate. Chemokine (such as MCP-1, MIP1α, IL8 or SDF-1α), at a concentration known to cause significant migration of THP-1 cells in the trans-well migration assay, is placed in the lower compartment (FIG. 1). […] A standard curve consisting of a two-fold dilution series of THP-1 cells (in 29 μl) is prepared to accurately quantify the number of cells that have migrated. […] Absorbance of converted dye is measured at a wavelength of 595 nm using an ELISA plate reader. The number of migrated cells in each well is then determined by interpolation of the standard curve (see also Imai et al., J. Biol. Chem., 272, 15036 (1997)). […]
After incubation, the cells were gently removed from the top of the filter with a pipette, 20 μl of 20 mM EDTA in PBS was added into each top well, and the mixture was incubated for 20 minutes at 4° C. […] A standard curve was prepared to accurately quantify the number of THP-1 cells that had migrated. […]

[9] = test system: TGF-beta receptor of THP-1 cells; experiment: Binding of biotinylated TGF-beta peptides to THP-1 cells; design: species or system human; conditions: for EC50: biotinylated peptide, read-out: ED50 of binding to the TGF-beta receptor of THP-1 cells

| Molecule | MCP-1 ED-50 [1] | gp120 ED-50 (gp120) | % virus inhibition (HIV) | MIPIa ED-50 [2] | SDF1a ED-50 [3] | DARC binding [5] | also measured |
| --- | --- | --- | --- | --- | --- | --- | --- |
| CC[C@H](C)[C@H](NC(=O)[C@H](CCCNC(=N)N)NC(=O)[C@H](CCCNC(=N)N)NC(=O)[C@H](Cc1ccc(O)cc1)NC(=O)[C@@H](N)CO)C(=O)N[C@H](C(=O)N[C@@H](CO)C(=O)N[C@@H](CO)C(=O)N[C@@H](CCCCN)C(=O)N[C@@H](CS)C(=O)O)[C@@H](C)O | ns | 60 µM | ns | ns | ns |  |  |
| NCC[C@H](O)C(=O)N[C@@H]1C[C@H](N)[C@@H](O[C@H]2O[C@H](CN)[C@@H](O)[C@H](O)[C@H]2O)[C@H](O)[C@H]1O[C@H]1O[C@H](CO)[C@@H](O)[C@H](N)[C@H]1O [amikacin] |  |  |  |  |  |  | T1/2 [4]: about 2 hours; Vd [4]: 0.27 L/kg; urinary excretion [4]: 98% |
| =cvaekpsksstirrysc= ([dC][dV][dA][dE][dK][dP][dS][dK][dS][dS][dT][dI][dR][dR][dY][dS][dC]; disulfide 1-17 (inferred); not fully specified (C-terminus); printed as =cvaekpsksstirrysc=) | ns | ns | ns | ns | ns |  |  |
| CSKPGV | ns | ns | ns | ns | ns | ns |  |
| CSYRRITSSKSPKEAVC | ns |  | ns | ns | ns | ns |  |
| DYFETSSQC | ns | ns | ns | ns | ns | ns |  |
| HLKILNTPNCALQIV [Pep2[SDF1]] | 10 =M | 35 µM |  | 40 =M | 7 =M |  | AVERAGE ED50, peptide 2 family: estimated ka for binding to THP-1 cells [6]: 1-10^e μM; DUFFY SELECTIVITY, peptide 2 family ([5]; ka for binding to red blood cells divided by the ka for binding THP-1 cells): <1^d; effect on THP-1 migration induced by the chemokine panel, in words [7]: potent pan-chemokine antagonist properties |
| SES |  |  |  |  |  |  | percentage inhibition of migration induced by RANTES [8]: 87 ± 4% |
| SYRRI | ns | ns | ns | ns | ns | ns |  |
| TSSKC | ns | ns | ns | ns | ns | ns |  |
| biotinylated HEPKGYHANFC [Biotinylated T2] |  |  |  |  |  |  | receptor character (agonist, antagonist, neutral) [9]: weak receptor antagonist; EC50 [9]: 30 µM |
| biotinylated LYIDFRQDLGWKW (also: biotinylated, site not given here) [Biotinylated T1] |  |  |  |  |  |  | receptor character (agonist, antagonist, neutral) [9]: receptor neutral agent; EC50 [9]: 18 µM |
| vgpkscqsstefyd | ns | ns | ns | ns | ns | ns |  |

Reference: patent US7989466B2, “Methods to inhibit or augment an inflammatory response” (Cambridge Enterprise Limited, priority 1999, dated 2011)
